Results reported in US20250154144A1 (CHILDREN'S HOSPITAL MEDICAL CENTER, priority 2021, published 2025).
Residue numbers refer to the chain shown, from its start. pIC50, pKd: −log10 of the molar value. Read-outs that look alike come from different tables or passages of the source.

Assays:
FLT3 ITD, F691L = target: T1, FLT3 ITD, F691L (Homo sapiens, UniProt P36888, F691L, form not given); assay: DiscoverX KINOMEscan competition binding, FLT3 ITD, F691L; conditions: read-out: FLT3 ITD, F691L Kd
T1 sequence (P36888 1-993 F691L): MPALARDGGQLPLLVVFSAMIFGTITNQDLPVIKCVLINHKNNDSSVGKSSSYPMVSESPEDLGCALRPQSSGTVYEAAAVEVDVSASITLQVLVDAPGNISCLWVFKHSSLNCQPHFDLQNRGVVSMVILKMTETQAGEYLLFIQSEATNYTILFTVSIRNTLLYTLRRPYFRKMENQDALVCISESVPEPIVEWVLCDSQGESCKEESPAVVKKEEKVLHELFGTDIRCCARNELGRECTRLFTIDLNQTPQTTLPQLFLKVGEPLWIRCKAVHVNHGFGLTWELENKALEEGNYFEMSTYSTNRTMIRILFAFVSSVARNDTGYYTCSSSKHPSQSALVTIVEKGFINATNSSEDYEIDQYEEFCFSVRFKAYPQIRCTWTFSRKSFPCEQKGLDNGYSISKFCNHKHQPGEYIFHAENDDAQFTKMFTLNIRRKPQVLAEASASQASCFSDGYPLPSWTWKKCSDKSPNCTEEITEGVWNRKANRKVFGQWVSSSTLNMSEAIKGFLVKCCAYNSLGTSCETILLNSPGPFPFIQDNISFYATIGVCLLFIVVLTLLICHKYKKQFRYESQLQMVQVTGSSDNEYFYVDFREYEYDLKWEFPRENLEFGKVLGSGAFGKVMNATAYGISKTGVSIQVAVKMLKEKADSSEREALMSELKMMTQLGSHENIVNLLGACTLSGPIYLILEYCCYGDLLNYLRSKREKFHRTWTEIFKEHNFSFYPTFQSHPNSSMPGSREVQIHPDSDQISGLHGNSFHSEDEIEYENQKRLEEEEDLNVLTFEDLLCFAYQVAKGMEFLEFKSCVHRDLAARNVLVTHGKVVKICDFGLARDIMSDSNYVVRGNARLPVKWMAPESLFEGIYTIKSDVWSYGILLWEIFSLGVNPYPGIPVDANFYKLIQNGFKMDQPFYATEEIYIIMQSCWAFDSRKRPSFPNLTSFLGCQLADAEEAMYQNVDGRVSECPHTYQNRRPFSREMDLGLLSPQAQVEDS

FLT3 K663Q = target: T2, FLT3 K663Q (Homo sapiens, UniProt P36888, K663Q); assay: DiscoverX KINOMEscan competition binding, FLT3 K663Q
T2 construct: purchased DiscoverX (KINOMEscan)
T2 sequence (P36888 27-993 K663Q): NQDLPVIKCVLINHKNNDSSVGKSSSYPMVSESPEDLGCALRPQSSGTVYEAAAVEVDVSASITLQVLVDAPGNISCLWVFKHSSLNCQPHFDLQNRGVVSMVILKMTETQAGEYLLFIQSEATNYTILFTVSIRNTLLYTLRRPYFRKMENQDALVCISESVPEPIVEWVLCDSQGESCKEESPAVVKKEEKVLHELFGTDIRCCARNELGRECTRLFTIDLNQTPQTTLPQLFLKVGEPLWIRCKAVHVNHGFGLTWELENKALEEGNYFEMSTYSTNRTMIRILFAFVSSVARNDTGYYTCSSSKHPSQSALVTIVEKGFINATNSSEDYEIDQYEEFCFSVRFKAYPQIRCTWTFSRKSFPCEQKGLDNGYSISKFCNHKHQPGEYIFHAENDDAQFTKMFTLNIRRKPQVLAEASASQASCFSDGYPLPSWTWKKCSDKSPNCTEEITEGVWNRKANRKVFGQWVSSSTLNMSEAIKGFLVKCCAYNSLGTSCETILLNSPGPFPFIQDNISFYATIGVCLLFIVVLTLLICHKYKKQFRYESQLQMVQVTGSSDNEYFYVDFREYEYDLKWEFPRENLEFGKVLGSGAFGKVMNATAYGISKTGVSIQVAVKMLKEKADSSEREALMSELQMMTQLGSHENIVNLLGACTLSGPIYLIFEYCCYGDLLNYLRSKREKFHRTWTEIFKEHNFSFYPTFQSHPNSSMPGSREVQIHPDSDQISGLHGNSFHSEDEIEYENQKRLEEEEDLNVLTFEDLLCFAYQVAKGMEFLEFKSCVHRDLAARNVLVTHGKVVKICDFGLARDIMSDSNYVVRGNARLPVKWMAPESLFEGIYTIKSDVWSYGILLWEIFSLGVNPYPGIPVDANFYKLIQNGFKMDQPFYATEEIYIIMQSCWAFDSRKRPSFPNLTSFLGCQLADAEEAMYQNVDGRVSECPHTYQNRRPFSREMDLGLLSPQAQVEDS

FLT3 = target: T3, FLT3 (Homo sapiens, UniProt P36888); assay: Reaction Biology NanoBRET target engagement assay in HEK-293 cells, FLT3
T3 sequence (P36888 27-993): T2 sequence (P36888 27-993 K663Q) with Q637K

[1] = NanoBRET FLT3 IC50, HEK-293 cells

pKd (FLT3 ITD, F691L) | pKd (FLT3 K663Q) | pIC50 (FLT3; [1]) | pIC50 (FLT3) | SMILES
8.74 | 7.68 | 6.00 |  | CC(O)(c1cn2c(-c3ccnc(N[C@H]4CNCC[C@@H]4F)n3)cnc2cn1)C(F)(F)F (single isomer, unassigned) [Compound 72]
10.32 | 8.42 | 7.72 |  | COc1cc2ncc(-c3cncc(N[C@H]4CNCC[C@@H]4F)n3)n2nc1C1CC1 [Compound 24, 6-(6-cyclopropyl-7-methoxyimidazo[1,2-b]pyridazin-3-yl)-N-((3S,4S)-4-fluoropiperidin-3-yl)pyrazin-2-amine]
10.04 | 8.54 | 7.74 |  | COc1cc2ncc(-c3ccnc(N[C@@H]4CCCNC4)n3)n2cc1C(C)(C)O [Compound 44, (R)-2-(7-methoxy-3-(2-(piperidin-3-ylamino)pyrimidin-4-yl)imidazo[1,2-a]pyridin-6-yl)propan-2-ol]
10.07 | 8.66 |  |  | COc1cc2ncc(-c3ccnc(N[C@H]4CNC[C@@H]4F)n3)n2nc1C1CC1 [Compound 49, 4-(6-cyclopropyl-7-methoxyimidazo[1,2-b]pyridazin-3-yl)-N-((3S,4S)-4-fluoropyrrolidin-3-yl)pyrimidin-2-amine]

Further lines, the molecule ahead of its results:

SMILES | pKd (FLT3 ITD, F691L) | pKd (FLT3 K663Q) | pIC50 (FLT3; [1]) | pIC50 (FLT3)
F[C@H]1CCNC[C@@H]1Nc1cncc(-c2cnc3cc(OC4CC4)ccn23)n1 [Compound 12, 6-(7-cyclopropoxyimidazo[1,2-a]pyridin-3-yl)-N-((3S,4S)-4-fluoropiperidin-3-yl)pyrazin-2-amine] | 10.34 | 7.89 | 6.75 | 
COc1cc2ncc(-c3cncc(N[C@H]4CNC[C@@H]4F)n3)n2nc1C1CC1 [Compound 22, 6-(6-cyclopropyl-7-methoxyimidazo[1,2-b]pyridazin-3-yl)-N-((3S,4S)-4-fluoropyrrolidin-3-yl)pyrazin-2-amine] | 10.11 | 7.74 |  | 6.49
COc1cc2ncc(-c3ccnc(N[C@H]4CNCC[C@@H]4F)n3)n2nc1C1CC1 [Compound 51, 4-(6-cyclopropyl-7-methoxyimidazo[1,2-b]pyridazin-3-yl)-N-((3S,4S)-4-fluoropiperidin-3-yl)pyrimidin-2-amine] | 10.10 | 9.09 | 8.05 | 
